Results reported in patent publication US20240174618A1, “SUBSTITUTED (2-HETEROARYLOXYPHENYL)SULFONATES, SALTS THEREOF AND THEIR USE AS HERBICIDAL AGENTS” (Bayer Aktiengesellschaft, priority 2021, published 2024).

What was measured:
Format in all cases: in vivo
[1] = test system: Alopecurus myosuroides (ALOMY); assay: C. Herbicidal pre-emergence efficacy, ALOMY; conditions: scored after about 3 weeks
Procedure, shortened: (§1)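 Pre-emergence test: formulated compounds sprayed as aqueous suspension or emulsion with 0.5% additive at 600 l/ha onto soil covering sown seeds, at rates corresponding to 320 g/ha or less. After about 3 weeks in greenhouse, efficacy scored visually as percent versus untreated controls (100% = plants dead).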

[2] = test system: Lolium rigidum (LOLRI); assay: C. Herbicidal pre-emergence efficacy, LOLRI; conditions: scored after about 3 weeks
Procedure, shortened: as §1

[3] = test system: Triticum aestivum (TRZAS); assay: D. Pre-emergence effect on useful plants, TRZAS; conditions: useful plant, application rate 80 g/ha
Procedure, shortened: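 Seeds sown in pots and covered with soil; WP or EC formulations sprayed on the soil surface as aqueous suspension/emulsion with 0.5% additive at 600 l/ha water. Plants grown in greenhouse; crop damage scored visually after about 3 weeks as % versus untreated controls (100% = dead, 0% = like control).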

[4] = test system: Veronica persica (VERPE); assay: C. Herbicidal pre-emergence efficacy, VERPE; conditions: scored after about 3 weeks
Procedure, shortened: as §1

[5] = test system: Amaranthus retroflexus (AMARE); assay: E. Herbicidal post-emergence efficacy, AMARE
Procedure, shortened: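 Compounds applied at 320 g/ha or less as a foliar spray (600 l/ha, 0.5% additive) to one-leaf-stage greenhouse plants grown in sandy loam. Damage is visually scored in percent relative to untreated plants after about 3 weeks.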

[6] = test system: Triticum aestivum (TRZAS); assay: F. Post-emergence effect on useful plants, TRZAS; conditions: useful plant
Procedure, shortened: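 Visual efficacy rating versus untreated plants, from 0% (no effect) to 100% (plants died), made about 3 weeks after post-emergence treatment. Formulated compounds (WP or EC, 0.5% additive, 600 l/ha water) were sprayed onto greenhouse-grown crops at the one-leaf stage, 2-3 weeks after sowing.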

[7] = test system: Polygonum convolvulus (POLCO); assay: C. Herbicidal pre-emergence efficacy, POLCO; conditions: scored after about 3 weeks
Procedure, shortened: as §1

[8] = test system: Echinochloa crus-galli (ECHCG); assay: C. Herbicidal pre-emergence efficacy, ECHCG; conditions: scored after about 3 weeks
Procedure, shortened: as §1

[9] = test system: Lolium rigidum (LOLRI); assay: A. Herbicidal pre-emergence efficacy, LOLRI
Procedure, shortened: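 Applied before emergence onto covering soil at rates of 1280 g/ha or less, using 600 L/ha spray water with 0.5% additive. Scoring: visual % efficacy after ~3 weeks, greenhouse.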

[10] = test system: Kochia scoparia (KCHSC); assay: C. Herbicidal pre-emergence efficacy, KCHSC
Procedure, shortened: as §1

SMILES	Pre-emergence efficacy against TRZAS in % [3] [%]	Post-emergence efficacy against TRZAS in % ([6]; application rate 80 g/ha) [%]	Pre-emergence efficacy against ALOMY ([1]; 80 g/ha) [%]	Pre-emergence efficacy against ALOMY ([1]; 320 g/ha) [%]	Pre-emergence efficacy against LOLRI ([2]; 320 g/ha) [%]	Pre-emergence efficacy against VERPE ([4]; 80 g/ha) [%]	Pre-emergence efficacy against VERPE ([4]; 320 g/ha) [%]	Post-emergence efficacy against AMARE in % ([5]; application rate 80 g/ha) [%]	Post-emergence efficacy against AMARE in % ([5]; application rate 320 g/ha) [%]	Pre-emergence efficacy against POLCO ([7]; 80 g/ha) [%]	Pre-emergence efficacy against POLCO ([7]; 320 g/ha) [%]	Pre-emergence efficacy against ECHCG ([8]; 80 g/ha) [%]	Pre-emergence efficacy against ECHCG ([8]; 320 g/ha) [%]	Pre-emergence efficacy against LOLRI ([9]; dosage 320 g/ha) [%]	Pre-emergence efficacy against LOLRI ([9]; dosage 1280 g/ha) [%]	Pre-emergence efficacy against KCHSC in % ([10]; application rate 80 g/ha) [%]	Pre-emergence efficacy against KCHSC in % ([10]; application rate 320 g/ha) [%]	Post-emergence efficacy against TRZAS in % ([6]; application rate 320 g/ha) [%]	Pre-emergence efficacy against LOLRI ([2]; 80 g/ha) [%]
O=S(=O)(CCCCl)Oc1ccccc1Oc1ncc(Cl)cn1 [Example I-2]	0	0	90	100	100	90	100	100	100	90	100	90	100	90	100				
O=S(=O)(CCCC(F)(F)F)Oc1c(Cl)cccc1Oc1ncc(Cl)cn1 [Example I-39]		0		100	100	100	100	100	100	100	100	90	100	100	100	100	100	20	
O=S(=O)(CCCC(F)(F)F)Oc1c(F)cccc1Oc1ncc(F)cn1 [Example I-42]			100	100	100	100	100	100	100	100	100	100	100	100	100	100	100		100
Cc1cccc(Oc2ncc(F)cn2)c1OS(=O)(=O)CCCC(F)(F)F [Example I-46]		0		100	100				90	90	100	90	100	100	100		100	10	

More lines, main results first:

Pre-emergence efficacy against TRZAS in % [3] [%]	Post-emergence efficacy against TRZAS in % ([6]; application rate 80 g/ha) [%]	SMILES	Pre-emergence efficacy against ALOMY ([1]; 80 g/ha) [%]	Pre-emergence efficacy against ALOMY ([1]; 320 g/ha) [%]	Pre-emergence efficacy against LOLRI ([2]; 320 g/ha) [%]	Pre-emergence efficacy against VERPE ([4]; 80 g/ha) [%]	Pre-emergence efficacy against VERPE ([4]; 320 g/ha) [%]	Post-emergence efficacy against AMARE in % ([5]; application rate 80 g/ha) [%]	Post-emergence efficacy against AMARE in % ([5]; application rate 320 g/ha) [%]	Pre-emergence efficacy against POLCO ([7]; 80 g/ha) [%]	Pre-emergence efficacy against POLCO ([7]; 320 g/ha) [%]	Pre-emergence efficacy against ECHCG ([8]; 80 g/ha) [%]	Pre-emergence efficacy against ECHCG ([8]; 320 g/ha) [%]	Pre-emergence efficacy against LOLRI ([9]; dosage 320 g/ha) [%]	Pre-emergence efficacy against LOLRI ([9]; dosage 1280 g/ha) [%]	Pre-emergence efficacy against KCHSC in % ([10]; application rate 80 g/ha) [%]	Pre-emergence efficacy against KCHSC in % ([10]; application rate 320 g/ha) [%]	Post-emergence efficacy against TRZAS in % ([6]; application rate 320 g/ha) [%]	Pre-emergence efficacy against LOLRI ([2]; 80 g/ha) [%]
	20	CC(C)CS(=O)(=O)Oc1ccccc1Oc1ncc(Cl)cn1 [Example I-7, [2-(5-Chloropyrimidin-2-yl)oxyphenyl] 2-methylpropane-1-sulfonate]	90	100	90	90	100	90	100	90	100	100	100		90				
	20	O=S(=O)(CCCCl)Oc1c(F)cccc1Oc1ncc(Cl)cn1 [Example I-14]	90	100	100	100	100	100	100	90	100	100	100	100	100				
	10	O=S(=O)(CCC(F)(F)F)Oc1c(F)cccc1Oc1ncc(Br)cn1 [Example I-40]		100	100	100	100	100	100	100	100	100	100	100	100	100	100	20	
